Activity calls are given as the source filed them. No rule for the calls is given here.
System: CCRIS mutagenicity, Ames/micronucleus/aberration tests
Test: CCRIS mutagenicity studies
[1] = Test System: AMES SALMONELLA TYPHIMURIUM, Strain/Indicator: TA98, Metabolic Activation: NONE, Method: PREINCUBATION
[2] = Test System: AMES SALMONELLA TYPHIMURIUM, Strain/Indicator: TA100, Metabolic Activation: NONE, Method: PREINCUBATION
[3] = Test System: AMES SALMONELLA TYPHIMURIUM, Strain/Indicator: TA1535, Metabolic Activation: NONE, Method: PREINCUBATION
[4] = Test System: AMES SALMONELLA TYPHIMURIUM, Strain/Indicator: TA98, Metabolic Activation: RAT, LIVER, S-9, AROCLOR 1254, Method: STANDARD PLATE
[5] = Test System: AMES SALMONELLA TYPHIMURIUM, Strain/Indicator: TA100, Metabolic Activation: NONE, Method: STANDARD PLATE
[6] = Test System: AMES SALMONELLA TYPHIMURIUM, Strain/Indicator: TA100, Metabolic Activation: RAT, LIVER, S-9, AROCLOR 1254, Method: STANDARD PLATE
[7] = Test System: AMES SALMONELLA TYPHIMURIUM, Strain/Indicator: TA98, Metabolic Activation: NONE, Method: STANDARD PLATE

For Nc1ccc(C=O)cc1, the mutagenic call [1] was “inactive; negative”, the mutagenic call (Test System: AMES SALMONELLA TYPHIMURIUM, Strain/Indicator: TA98, Metabolic Activation: RAT LIVER S-9, PHENOBARBITAL AND BETA-NAPHTHOFLAVONE (30%), Method: PREINCUBATION) was “inactive; negative” and the mutagenic call (Test System: AMES SALMONELLA TYPHIMURIUM, Strain/Indicator: TA98, Metabolic Activation: RAT LIVER S-9, PHENOBARBITAL AND BETA-NAPHTHOFLAVONE, Method: PREINCUBATION) was “inactive; negative”. The mutagenic call [2] was “inactive; negative”, the mutagenic call (Test System: AMES SALMONELLA TYPHIMURIUM, Strain/Indicator: TA100, Metabolic Activation: RAT LIVER S-9, PHENOBARBITAL AND BETA-NAPHTHOFLAVONE (30%), Method: PREINCUBATION) was “inactive; negative” and the mutagenic call (Test System: AMES SALMONELLA TYPHIMURIUM, Strain/Indicator: TA100, Metabolic Activation: RAT LIVER S-9, PHENOBARBITAL AND BETA-NAPHTHOFLAVONE, Method: PREINCUBATION) was “inactive; negative”. For the same compound, the mutagenic call [3] was “inactive; negative”, the mutagenic call (Test System: AMES SALMONELLA TYPHIMURIUM, Strain/Indicator: TA1535, Metabolic Activation: RAT LIVER S-9, PHENOBARBITAL AND BETA-NAPHTHOFLAVONE (30%), Method: PREINCUBATION) was “inactive; negative” and the mutagenic call (Test System: AMES SALMONELLA TYPHIMURIUM, Strain/Indicator: TA1535, Metabolic Activation: RAT LIVER S-9, PHENOBARBITAL AND BETA-NAPHTHOFLAVONE, Method: PREINCUBATION) was “inactive; negative”. The mutagenic call (Test System: AMES SALMONELLA TYPHIMURIUM, Strain/Indicator: TA1537, Metabolic Activation: NONE, Method: PREINCUBATION) was “inactive; negative”, the mutagenic call (Test System: AMES SALMONELLA TYPHIMURIUM, Strain/Indicator: TA1537, Metabolic Activation: RAT LIVER S-9, PHENOBARBITAL AND BETA-NAPHTHOFLAVONE (30%), Method: PREINCUBATION) was “inactive; negative” and the mutagenic call (Test System: AMES SALMONELLA TYPHIMURIUM, Strain/Indicator: TA1537, Metabolic Activation: RAT LIVER S-9, PHENOBARBITAL AND BETA-NAPHTHOFLAVONE, Method: PREINCUBATION) was “inactive; negative”. The mutagenic call (Test System: E.COLI, Strain/Indicator: WP2UVRA, Metabolic Activation: NONE, Method: PREINCUBATION) was “inactive; negative”, the mutagenic call (Test System: E.COLI, Strain/Indicator: WP2UVRA, Metabolic Activation: RAT LIVER S-9, PHENOBARBITAL AND BETA-NAPHTHOFLAVONE (30%), Method: PREINCUBATION) was “inactive; negative” and the mutagenic call (Test System: E.COLI, Strain/Indicator: WP2UVRA, Metabolic Activation: RAT LIVER S-9, PHENOBARBITAL AND BETA-NAPHTHOFLAVONE, Method: PREINCUBATION) was “inactive; negative”.

With O=C/C=C/C=C/C=O the mutagenic call (Test System: AMES SALMONELLA TYPHIMURIUM, Strain/Indicator: TA97, Metabolic Activation: NONE, Method: PREINCUBATION) was “inactive; negative”, the mutagenic call (Test System: AMES SALMONELLA TYPHIMURIUM, Strain/Indicator: TA97, Metabolic Activation: NONE, Method: STANDARD PLATE) was “active; positive” and the mutagenic call (Test System: AMES SALMONELLA TYPHIMURIUM, Strain/Indicator: TA97, Metabolic Activation: RAT, LIVER, S-9, AROCLOR 1254, Method: PREINCUBATION) was “inactive; negative”. The mutagenic call (Test System: AMES SALMONELLA TYPHIMURIUM, Strain/Indicator: TA97, Metabolic Activation: RAT, LIVER, S-9, AROCLOR 1254, Method: STANDARD PLATE) was “active; positive”, the mutagenic call [1] was “inactive; negative” and the mutagenic call (Test System: AMES SALMONELLA TYPHIMURIUM, Strain/Indicator: TA98, Metabolic Activation: RAT, LIVER, S-9, AROCLOR 1254, Method: PREINCUBATION) was “inactive; negative”. For the same compound, the mutagenic call [4] was “inactive; negative”, the mutagenic call [2] was “inactive; negative” and the mutagenic call [5] was “inactive; negative”. For the same compound, the mutagenic call (Test System: AMES SALMONELLA TYPHIMURIUM, Strain/Indicator: TA100, Metabolic Activation: RAT, LIVER, S-9, AROCLOR 1254, Method: PREINCUBATION) was “inactive; negative”, the mutagenic call [6] was “inactive; negative” and the mutagenic call (Test System: AMES SALMONELLA TYPHIMURIUM, Strain/Indicator: TA102, Metabolic Activation: NONE, Method: PREINCUBATION) was “inactive; negative”. The mutagenic call (Test System: AMES SALMONELLA TYPHIMURIUM, Strain/Indicator: TA102, Metabolic Activation: RAT, LIVER, S-9, AROCLOR 1254, Method: PREINCUBATION) was “inactive; negative”, the mutagenic call (Test System: AMES SALMONELLA TYPHIMURIUM, Strain/Indicator: TA104, Metabolic Activation: NONE, Method: PREINCUBATION) was “inactive; negative” and the mutagenic call (Test System: AMES SALMONELLA TYPHIMURIUM, Strain/Indicator: TA104, Metabolic Activation: RAT, LIVER, S-9, AROCLOR 1254, Method: PREINCUBATION) was “inactive; negative”. The mutagenic call [3] was “inactive; negative”, the mutagenic call (Test System: AMES SALMONELLA TYPHIMURIUM, Strain/Indicator: TA1535, Metabolic Activation: RAT, LIVER, S-9, AROCLOR 1254, Method: PREINCUBATION) was “inactive; negative” and the mutagenic call (Test System: AMES SALMONELLA TYPHIMURIUM, Strain/Indicator: TA1535, Metabolic Activation: RAT, LIVER, S-9, AROCLOR 1254, Method: STANDARD PLATE) was “inactive; negative”. The mutagenic call (Test System: AMES SALMONELLA TYPHIMURIUM, Strain/Indicator: TA1538, Metabolic Activation: RAT, LIVER, S-9, AROCLOR 1254, Method: STANDARD PLATE) was “inactive; negative”, the mutagenic call (Test System: CHINESE HAMSTER OVARY, Strain/Indicator: CHO-K1-BH4 (HGPRT), Metabolic Activation: NONE, Method: STANDARD PLATE) was “inactive; negative” and the mutagenic call (Test System: CHINESE HAMSTER V-79, Strain/Indicator: V-79 (HGPRT)/8-AZAGUANINE, Metabolic Activation: NONE) was “active; positive”. For the same compound, the mutagenic call (Test System: CHINESE HAMSTER V-79, Strain/Indicator: V-79/6-THIOGUANINE, Metabolic Activation: NONE) was “active; positive”, the mutagenic call (Test System: E. COLI, Strain/Indicator: WP2 UVRA, Metabolic Activation: NONE, Method: PREINCUBATION) was “inactive; negative” and the mutagenic call (Test System: E. COLI, Strain/Indicator: WP2 UVRA, Metabolic Activation: RAT, LIVER, S-9, AROCLOR 1254, Method: PREINCUBATION) was “inactive; negative”. For the same compound, the mutagenic call (Test System: UDS RODENT HEPATOCYTES, Strain/Indicator: THY INCORP (NON-S-PHASE), Metabolic Activation: NONE, Method: AUTORADIOGRAPHY) was “inactive; negative”.

With O=C1c2c(O)cc(O)cc2O[C@H](c2ccc(O)c(O)c2)[C@H]1O the mutagenic call (Test System: Ames Salmonella typhimurium, Strain/Indicator: TA102, Metabolic Activation: Fe ++ (1 uM) with NADPH generating system, Method: Preincubation) was “inactive; negative”, the mutagenic call (Test System: Ames Salmonella typhimurium, Strain/Indicator: TA102, Metabolic Activation: None, Method: Preincubation) was “inactive; negative” and the mutagenic call (Test System: Ames Salmonella typhimurium, Strain/Indicator: TA102, Metabolic Activation: Rat, Liver, S-9, Aroclor 1254, Method: Preincubation) was “inactive; negative”. The mutagenic call (Test System: Ames Salmonella typhimurium, Strain/Indicator: TA102, Metabolic Activation: Rat, Liver, S-9, Aroclor 1254 in 0.154 M KCl, Method: Preincubation) was “inactive; negative”, the mutagenic call (Test System: E. coli, Strain/Indicator: WP2 uvrA, Metabolic Activation: Fe ++ (1 uM) with NADPH generating system, Method: Preincubation) was “inactive; negative. authors say results are positive at 100 and 250 um but results are bar” and the mutagenic call (Test System: E. coli, Strain/Indicator: WP2 uvrA, Metabolic Activation: None, Method: Preincubation) was “inactive; negative”. For the same compound, the mutagenic call (Test System: E. coli, Strain/Indicator: WP2 uvrA, Metabolic Activation: Rat, Liver, S-9, Aroclor 1254, Method: Preincubation) was “inactive; negative”.

For COc1cccc2c1C(=N)c1c(O)c3c(c(O)c1C2=O)C[C@@](O)(C(C)=O)C[C@@H]3O[C@H]1C[C@H](N)[C@H](O)[C@H](C)O1, the mutagenic call (Test System: CHINESE HAMSTER V-79, Strain/Indicator: V-79 (HGPRT)/6-THIOGUANINE, Metabolic Activation: NONE) was “active; positive”.

In the case of Cn1cc(C[C@@]2(O)C(=O)O[C@@H]3[C@@H](O)CO[C@@]32O)c2ccccc21, the mutagenic call [7] is reported as “active; positive”, the mutagenic call (Test System: AMES SALMONELLA TYPHIMURIUM, Strain/Indicator: TA98, Metabolic Activation: RAT, LIVER, S-9, PCB, Method: STANDARD PLATE) is reported as “active; positive” and the mutagenic call [5] is reported as “active; positive”. The mutagenic call (Test System: AMES SALMONELLA TYPHIMURIUM, Strain/Indicator: TA100, Metabolic Activation: RAT, LIVER, S-9, PCB, Method: STANDARD PLATE) was “active; positive”.

In the case of CCOP(=O)(OCC)Oc1nc(Cl)c(Cl)cc1Cl, the mutagenic call [7] is reported as “inactive; negative”, the mutagenic call (Test System: AMES SALMONELLA TYPHIMURIUM, Strain/Indicator: TA98, Metabolic Activation: RAT, LIVER, S-9, Method: STANDARD PLATE) is reported as “inactive; negative” and the mutagenic call [5] is reported as “inactive; negative”. For the same compound, the mutagenic call (Test System: AMES SALMONELLA TYPHIMURIUM, Strain/Indicator: TA100, Metabolic Activation: RAT, LIVER, S-9, Method: STANDARD PLATE) was “inactive; negative”.

O=C(O)CCC(=O)Nc1cc(Cl)cc(Cl)c1 was tested, and the mutagenic call [7] was “inactive; negative”, the mutagenic call [4] was “inactive; negative” and the mutagenic call [5] was “inactive; negative”. The mutagenic call [6] was “inactive; negative”.
